From patent US10662210B2, “Compositions and methods comprising osmium for the treatment of cancers” (Massachusetts Institute of Technology, priority 2014, dated 2020) come the findings set out here.

In test [1] the test system is pUC19 plasmid DNA. Put plainly: Agarose gel electrophoresis of plasmid DNA. The class given is biochemical. To be noted: 24 h, 37° C. How it is done:
The osmium compounds were hypothesized to induce cell death through DNA interactions. Therefore, the interaction of 2 or 4 with pUC19 plasmid DNA was investigated using gel electrophoresis; the results of which are as shown in FIG. 6. As the concentration of 2 increased, there was a clear increase in the amount of nicked circular, and a concomitant decrease in the amount of supercoiled, plasmid DNA. At concentrations >250 μM, the bands in the gel smeared and then disappeared. […] The DNA binding kinetics of 2 and 4 were studied by measuring the amount of osmium bound to precipitated ct-DNA; the results of which are as shown in FIG. 7. The half-life of this reaction for 2 was 2 hours.
Plasmid DNA (pUC19) was kindly donated. The DNA binding ability of the osmium complexes was determined by monitoring the conversion of supercoiled plasmid DNA (form I) to nicked circular DNA (form II) using agarose gel electrophoresis. To probe the effect of Os-complex concentration, solutions containing […] of DNA and 0, 10, 20, 50, 100, 250, 500, and 1000 μM of the osmium complexes with a total reaction volume of 15 μL were incubated at 37° C. for 24 h. […] The DNA bands were analysed under UV light using a Flor-S reader (BioRad).

For test [2], the system named is HeLa (cervical). Put plainly: Cytotoxicity MTT assay. Type of test: cell-based, human. The settings on record: 72 h. How it is done:
(§1) The anti-proliferative properties of 1-4 against a panel of human cancer cell lines were assessed by the MTT [3-(4,5-dimethylthiazol-2-yl)-2,5-diphenyltetrazolium bromide] assay. Cisplatin was included as a control. The IC50 values, concentrations required to induce 50% viability, were derived from dose-response curves and are summarized in Table 1.
(§2) A549 lung adenocarcinoma, HeLa cervical cancer, and MRC5 normal human fetal lung fibroblast cell lines were maintained in Dulbecco's Modified Eagle's Medium (DMEM-low glucose) supplemented with 10% fetal bovine serum and 1% penicillin/streptomycin. The cisplatin-sensitive A2780 ovarian cancer and the cisplatin-resistant A2780/CP70 ovarian cancer cell lines were cultured in RPMI (glutamine free) media supplemented with 10% fetal bovine serum and 1% penicillin/streptomycin. All cells were grown at 310 K in a humidified atmosphere containing 5% CO2.
(§3) The colorimetric MTT assay was used to determine the toxicity of the osmium complexes and cisplatin. Cells (2×10^3) were seeded in each well of a 96-well plate. After incubating the cells overnight, various concentrations of test compound (0.3-100 μM) were added and incubated for 72 h (total volume 200 μL). The test compounds were prepared as 10 mM solutions in DMSO and diluted using media. The final concentration of DMSO in each well was 0.5% and this amount was present in the untreated control as well. Cisplatin was prepared as a 5 mM solution in PBS and diluted further using media. After 72 h, the medium was removed, 200 μL of a 0.4 mg/mL solution of MTT in DMEM or RPMI was added, and the plate was incubated for an additional 1-2 h. The DMEM/MTT or RPMI/MTT mixture was aspirated and 200 μL of DMSO was added to dissolve the resulting purple formazan crystals. The absorbance of the solution wells was read at 550 nm. Absorbance values were normalized to DMSO-containing control wells and plotted as concentration of test compound versus % cell viability. IC50 values were interpolated from the resulting dose dependent curves. The reported IC50 values are the average from at least three independent experiments, each of which consisted of six replicates per concentration level.
Background: Formazan colour is commonly taken as a measure of viable cells.

Test [3] relates to MRC-5 (lung normal). Put plainly: Cytotoxicity MTT assay. The class given is cell-based, human. To be noted: 72 h. Here is the method: as §1, §2, §3
Test [4] relates to A2780 (ovarian). Put plainly: Cytotoxicity MTT assay. Type of test: cell-based, human. The settings on record: for IC50: MTT, 72 h. How it is done: as §1, §2, §3
Test [5] relates to A549 (lung). Nature of the test: Cytotoxicity MTT assay. The class given is cell-based, human. To be noted: 72 h. How it is done: as §1, §2, §3
Test [6] has as its system A2780/CP70 (ovarian). Put plainly: Cytotoxicity MTT assay. The class given is cell-based, human. To be noted: 72 h, cisplatin-resistant. How it is done:
as §1, §2, §3

Test [7] relates to Eμ-Mycp19arf−/− lymphoma cells. Nature of the test: RNAi signatures, GFP competition assay. The settings on record: for shChk2 log 2(RI) value / shp53 log 2(RI) value: LD80-90 concentration; for RNAi signature classification against reference set: probabilistic K-nearest neighbors.
From the text: This RNAi-based methodology relied on a fluorescence competition assay involving lymphoma cells that were partially infected with one of eight distinct short hairpin RNAs (shRNAs). shRNA-bearing cells will either enrich or deplete relative to the uninfected population based on drug survival advantage or disadvantage conferred by a given shRNA. […] The signature of a novel compound was compared to those of a reference set of drugs using a probabilistic K-nearest neighbors algorithm to determine whether it belonged to a class in the reference set or a new category that was not represented in the reference set.
Compounds were dosed to achieve an LD80-90 in Eμ-Myc^p19arf−/− cells by propidium iodide exclusion as determined by FACS after a 48 h incubation. GFP enrichment/depletion was then determined by FACS at 72 h. […] All FACS was conducted using a FACScan (BD Biosciences).
Eμ-Myc^p19arf−/− lymphoma or p185+ BCR-Abl^p19arf−/− leukemia cells were infected with GFP-tagged shRNAs such that 15-25% of the population were GFP positive. An eighth of a million cells in 250 μL B-cell media (BCM) were then seeded into 24-well plates. For wells that would remain untreated as a control, only 1/16th of a million cells were seeded. Next, 250 μL of media containing the active agent was added to the cells. After 24 h, 300 μL of cells from untreated wells are removed and replaced by 300 μL fresh BCM. All wells then received 500 μL BCM before being placed by in the incubator for another 24 h. At 48 h, cells transduced with the control vector, MLS, were checked for viability via FACS on a FACScan (BD Biosciences) using propidium iodide as a live/dead marker. Untreated wells then had 700 μL of cells removed and replaced with 700 μL fresh media followed by a further 1 mL of fresh media. […] Finally, at 72 h, all wells for which an LD80-90 was achieved, as well as the untreated samples, were analyzed via FACS to determine GFP % enrichment.
In test [8] the test system is phosphorylated eIF2α and CHOP in A2780 cells. Nature of the test: Immunoblotting analysis, unfolded protein response. Type of test: cell-based, human. The settings on record: 72 hours. How it is done:
This finding led to the investigation of the possibility that 4 may induce endoplasmic reticulum (ER) stress. Co-administration of 4 and salubrinal (10 μM), a known ER stress inhibitor, reduced the cytotoxicity of 4 in A2780 cells. […] To further validate the ER as the main target for 4, the expression of proteins related to the unfolded protein response (UPR) was monitored. […] ER membrane expansion is widely associated with ER stress. With this fact in mind the ER size of A2780 cells upon incubation with 4 were examined using fluorescence microscopy. Relative to untreated controls (FIG. 3B), cells exposed to 4 (10 μM) for 4 h had 25.1% larger ER coverage (FIG. 3C). The ER size relative to the whole cell of the untreated controls was about 30% and the ER size relative to the whole cell of the treated samples was about 55%.
A2780 cells (5×10^5 cells) were incubated with the osmium complexes (concentrations, μM) for 72 h at 37° C. Cells were washed with PBS, scraped into SDS-PAGE loading buffer (64 mM Tris-HCl (pH6.8)/9.6% glycerol/2% SDS/5% β-mercaptoethanol/0.01% Bromophenol Blue), and incubated at 95° C. for 10 min. […] After incubation with horseradish peroxidase-conjugated secondary antibodies (Cell Signalling Technology), immune complexes were detected with the ECL detection reagent (BioRad) and analyzed using an Alpha Innotech ChemiImager™ 5500 fitted with a chemiluminescence filter.
In general terms: A western blot detects proteins with antibodies after separation by electrophoresis.

As to `[N]#[Os]1([Cl])([Cl])([Cl])[N]2C=CC(c3ccccc3)=c3ccc4c(c32)[N]1C=CC=4c1ccccc1` [Complex 4, OsN(4,7-diphenyl-1,10-phenanthroline)Cl3], in test [1], the “effect on pUC19 DNA in gel electrophoresis” value was “no visible effect”. In addition, the IC50 was 2.86 ± 0.51 µM in test [2]; 8.45 ± 1.21 µM in test [3]; 3.36 ± 0.09 µM in test [4]; 1.97 ± 0.02 µM in test [5]; 3.4 ± 0.28 µM in test [6]. In test [7], the “shChk2 log 2(RI) value” is recorded as 0.73. Also, the “shp53 log 2(RI) value” in test [7] turned out to be 1.32. For the same compound, the “RNAi signature classification against reference set” value in test [7] is on record as “represented novel mechanisms of drug action”. Besides, the “phosphorylated eIF2α and CHOP expression” value in test [8] is on record as “upregulated”.
For the compound `[N]#[Os]1([Cl])([Cl])([Cl])[N]2C=CC=c3ccc4c(c32)[N]1C=CC=4` [Complex 2, OsN(1,10-phenanthroline)Cl3], in test [1], the “effect on pUC19 DNA in gel electrophoresis” value was “induced conformational changes and degradation of circular DNA”. Further, the IC50 in test [2] was determined as 6.95 ± 0.53 µM; in test [3] it was 16.6 ± 3.61 µM; in test [4], 1.99 ± 0.23 µM; in test [5], 7.86 ± 1.41 µM; in test [6], 2.96 ± 0.23 µM. For the same compound, in test [4] (A2780 vs MRC5), the “higher potency for A2780 than for normal lung fibroblast MRC5” value was found to be 8 fold. Also, in test [7], the “shChk2 log 2(RI) value” was found to be 2.6. For the same compound, in test [7], the “shp53 log 2(RI) value” is on record as 2.7. Further, in test [7], the “RNAi signature classification against reference set” value is listed as “represented novel mechanisms of drug action”. For the same compound, the “phosphorylated eIF2α and CHOP expression” value in test [8] is “little effect”.

One may read the IC50 as the concentration at which inhibition is half-maximal.
